# Experimental data from paper PMC11995724, “Antibiotic target discovery by integrated phenotypic and activity-based profiling of electrophilic fragments” (Cell chemical biology, 2025).
# Assay: in vitro
# Conditions: human, hek293t cells
row,SMILES,"viability at 48 h, 25 µM [%]"
1,"COCCNC(=O)C(C#N)=Cc1c(F)cccc1Cl [8-O21, 3-(2-chloro-6-fluorophenyl)-2-cyano-N-(2-methoxyethyl)prop-2-enamide]",94.2
2,"CCc1ccc(-c2nn(-c3ccccc3)cc2C=C(C#N)C(N)=O)cc1 [8-O22, 2-cyano-3-[3-(4-ethylphenyl)-1-phenyl-1H-pyrazol-4-yl]prop-2-enamide]",70.6
3,"COc1cccc(NC(=O)C(C#N)=Cc2cccc(O)c2)c1 [8-P03, 2-cyano-3-(3-hydroxyphenyl)-N-(3-methoxyphenyl)prop-2-enamide]",120
4,"N#CC(=Cc1cccc(Cl)c1Cl)C(=O)NCc1ccco1 [8-P04, 2-cyano-3-(2,3-dichlorophenyl)-N-[(furan-2-yl)methyl]prop-2-enamide]",52.4
5,"COc1cc(C=C(C#N)C(=O)Nc2ccc(C)cc2)cc(Cl)c1O [8-P05, 3-(3-chloro-4-hydroxy-5-methoxyphenyl)-2-cyano-N-(4-methylphenyl)prop-2-enamide]",95.6
6,"CC(C)NC(=O)C(C#N)=Cc1cccc2ccccc12 [8-P06, 2-cyano-3-(naphthalen-1-yl)-N-(propan-2-yl)prop-2-enamide]",103
7,"COc1ccc(C=C(C#N)C(=O)Nc2ccccc2C)cc1 [8-P07, 2-cyano-3-(4-methoxyphenyl)-N-(2-methylphenyl)prop-2-enamide]",114
8,"COc1cc(C=C(C#N)C(N)=O)ccc1OC(F)F [8-P08, 2-cyano-3-[4-(difluoromethoxy)-3-methoxyphenyl]prop-2-enamide]",82.2
9,"N#CC(=Cc1c(Cl)cccc1Cl)C(=O)Nc1nccs1 [8-P09, 2-cyano-3-(2,6-dichlorophenyl)-N-(1,3-thiazol-2-yl)prop-2-enamide]",109
10,"N#CC(=Cc1ccccc1)C(=O)NCc1ccc(F)cc1 [8-P10, 2-cyano-N-[(4-fluorophenyl)methyl]-3-phenylprop-2-enamide]",89
11,"CCc1cccc(CC)c1NC(=O)C(C#N)=Cc1ccc(C)o1 [8-P11, 2-cyano-N-(2,6-diethylphenyl)-3-(5-methylfuran-2-yl)prop-2-enamide]",108
12,"COc1ccc2ccccc2c1C=C(C#N)C(=O)N1CCCC1 [8-P12, 3-(2-methoxynaphthalen-1-yl)-2-(pyrrolidine-1-carbonyl)prop-2-enenitrile]",75.4
13,"Cc1ccc(C=C(C#N)C(=O)Nc2nccs2)s1 [8-P13, 2-cyano-3-(5-methylthiophen-2-yl)-N-(1,3-thiazol-2-yl)prop-2-enamide]",109
14,"N#CC(=Cc1cccc(O)c1)C(=O)NCc1ccc(Cl)cc1 [8-P14, N-[(4-chlorophenyl)methyl]-2-cyano-3-(3-hydroxyphenyl)prop-2-enamide]",64.4
15,"COc1ccc(C=C(C#N)C(=O)Nc2ccccc2C)cc1O [8-P15, 2-cyano-3-(3-hydroxy-4-methoxyphenyl)-N-(2-methylphenyl)prop-2-enamide]",120
16,"CC(NC(=O)C(C#N)=Cc1ccccc1F)c1ccccc1 (centres unmarked) [8-P16, 2-cyano-3-(2-fluorophenyl)-N-(1-phenylethyl)prop-2-enamide]",61.8
17,"CCCCNC(=O)C(C#N)=Cc1ccncc1 [8-P17, N-butyl-2-cyano-3-(pyridin-4-yl)prop-2-enamide]",115
18,"COc1ccc2ccccc2c1C=C(C#N)C(=O)NC1CCCCC1 [8-P18, 2-cyano-N-cyclohexyl-3-(2-methoxynaphthalen-1-yl)prop-2-enamide]",66.4
19,"Cc1ccc(C=C(C#N)C(=O)NCc2ccco2)o1 [8-P19, 2-cyano-N-[(furan-2-yl)methyl]-3-(5-methylfuran-2-yl)prop-2-enamide]",95.3
20,"N#CC(=CC=Cc1ccccc1[N+](=O)[O-])C(=O)Nc1ccccc1 [8-P20, 2-cyano-5-(2-nitrophenyl)-N-phenylpenta-2,4-dienamide]",48
